The values that follow come from US20250188030A1, “Biphenyl and Phenylpyridine Compounds” (Pfizer Inc., priority 2023, published 2025).

Assay [1] has as its system H3K9AC (HT1080 cells). Nature of the assay: H3K9AC Sandwich ELISA Assay in HT1080 cells (KAT2A primary cell-based screening assay). Set-up: species or system Human. As to conditions: Homo sapiens, HT-1080, H3K9AC sandwich ELISA. An outline of the steps: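 HT1080 fibrosarcoma cells seeded 16 h, then treated 24 h at 37 °C with 10-point 1:3 compound dilutions (top 10 µM final, 0.1% DMSO). Acid lysates neutralized with butyrate/PMSF; H3K9ac measured by total-H3-capture sandwich ELISA with luminescent HRP readout, IC50 by four-parameter fit.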
(In general: In an ELISA, binding on a coated surface is turned into a signal by an enzyme label.)

Assay [2] has as its system MM.1S cells. The experiment in a line: MM1.S 10 Day Proliferation Assay (CellTiter-Glo). It counts as cell-based, Human. The conditions noted are these: Homo sapiens, MM1.S, 240 h. In outline: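 MM.1S cells, 500/well in ultra-low-attachment plates, were pre-incubated 16 h, then exposed to a 10-point 1:3 dilution series (top 10 μM final, 0.1% DMSO) for 10 days at 37 °C, with compound-containing medium refreshed at day 5. Viability was read by CellTiter-Glo luminescence; IC50 came from four-parameter fit.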

The target of assay [3] is KAT2A (Homo sapiens (Human), UniProt Q92830). The experiment in a line: KAT2A acetyltransferase biochemical assay (RapidFire mass spectrometry, AcCoA to CoA).
Sequence of KAT2A (Q92830 whole entry): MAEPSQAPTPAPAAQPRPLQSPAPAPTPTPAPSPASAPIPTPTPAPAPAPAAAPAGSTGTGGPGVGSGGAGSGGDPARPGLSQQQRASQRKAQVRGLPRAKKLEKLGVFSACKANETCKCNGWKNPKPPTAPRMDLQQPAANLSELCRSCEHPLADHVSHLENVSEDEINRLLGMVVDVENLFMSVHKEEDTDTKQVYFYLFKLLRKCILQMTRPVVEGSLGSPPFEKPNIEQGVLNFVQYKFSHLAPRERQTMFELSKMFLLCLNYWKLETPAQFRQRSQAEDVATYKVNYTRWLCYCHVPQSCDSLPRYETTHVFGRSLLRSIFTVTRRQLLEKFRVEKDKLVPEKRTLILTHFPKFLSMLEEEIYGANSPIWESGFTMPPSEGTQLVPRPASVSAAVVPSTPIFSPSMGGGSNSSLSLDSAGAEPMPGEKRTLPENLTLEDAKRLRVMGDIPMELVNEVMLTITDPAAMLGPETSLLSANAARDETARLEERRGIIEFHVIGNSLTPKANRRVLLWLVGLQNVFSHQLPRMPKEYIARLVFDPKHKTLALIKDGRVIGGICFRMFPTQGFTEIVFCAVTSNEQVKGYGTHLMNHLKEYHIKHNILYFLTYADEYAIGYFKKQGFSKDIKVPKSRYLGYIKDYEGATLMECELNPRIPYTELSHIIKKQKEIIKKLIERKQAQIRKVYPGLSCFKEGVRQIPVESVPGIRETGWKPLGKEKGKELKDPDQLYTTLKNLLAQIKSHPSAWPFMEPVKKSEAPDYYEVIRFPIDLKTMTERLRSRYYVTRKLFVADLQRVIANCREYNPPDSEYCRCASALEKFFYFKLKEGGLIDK
The mark [4] stands for this setting: read-out: KAT2A Ki at 1 μM AcCoA, 5 μM H3 1-21 peptide, 0.5 nM KAT2A, 90-minute reaction.
Where [5] appears, read: KAT2A Ki at 1 μM AcCoA, 5 μM H3 1-21 peptide, 0.5 nM KAT2A, 90-minute reaction.

Each structure is given as a SMILES string. Like-named read-outs stand apart in the source and are kept apart here.

By IC50 is commonly meant the point on the concentration scale where inhibition reaches its midpoint. Low readings indicate greater potency in that assay, high ones weaker potency in that assay. Usually Ki stands for a measure of affinity in units of concentration, obtained from inhibition or displacement.

In the case of `CC(C)(C(=O)NS(C)(=O)=O)c1ccc(O[C@@H]2CC[C@@H](NC(=O)[C@@]3(F)CNC4(CCC4)C3)C2)c(-c2cccc(F)c2C2CCC2)c1` [Example C1, (7S)—N-{(1R,3R)-3-[(2′-cyclobutyl-3′-fluoro-5-{1-[(methanesulfonyl)amino]-2-methyl-1-oxopropan-2-yl}[1,1′-biphenyl]-2-yl)oxy]cyclopentyl}-7-fluoro-5-azaspiro[3.4]octane-7-carboxamide], the IC50 stood at 18 nM in assay [1] and 36.8 nM in assay [2]. For the same compound, in assay [3] (setting [4]), the Ki was found to be 0.43 nM.
As to `CN(C)S(=O)(=O)NC(=O)C(C)(C)c1ccc(O[C@@H]2CC[C@@H](NC(=O)[C@@]3(F)CNC4(CCC4)C3)C2)c(-c2cccc(F)c2C2CCC2)c1` [Example C2, (7S)-N-{(1R,3R)-3-[(2′-cyclobutyl-5-{1-[(dimethylsulfamoyl)amino]-2-methyl-1-oxopropan-2-yl}-3′-fluorobiphenyl-2-yl)oxy]cyclopentyl}-7-fluoro-5-azaspiro[3.4]octane-7-carboxamide], the IC50 worked out at 3.56 nM in assay [1] and 5.37 nM in assay [2]. Besides, in assay [3] (setting [5]), the inhibition constant Ki came to 0.05 nM.
Take `CCc1ccccc1-c1cc(C(C)(C)C(=O)NS(=O)(=O)C(C)C)ccc1O[C@@H]1CC[C@@H](NC(=O)[C@@]2(F)CNC3(CCC3)C2)C1` [Example C46, (7S)-N-[(1R,3R)-3-({2′-ethyl-5-[2-methyl-1-oxo-1-(propane-2-sulfonamido)propan-2-yl][1,1′-biphenyl]-2-yl}oxy)cyclopentyl]-7-fluoro-5-azaspiro[3.4]octane-7-carboxamide]: the results for the IC50 in assay [1] and in assay [2] were 7.4 nM and 62.9 nM, respectively. The Ki in assay [3] (setting [4]) was found to be 2.16 nM.
Taken in the same sequence, the figures for `CC(C)c1ccccc1-c1cc(C(C)(C)C(=O)NS(=O)(=O)C(C)C)ccc1O[C@@H]1CC[C@@H](NC(=O)[C@@]2(F)CNC3(CCC3)C2)C1` [Example C47, (7S)-7-fluoro-N-[(1R,3R)-3-({5-[2-methyl-1-oxo-1-(propane-2-sulfonamido)propan-2-yl]-2′-(propan-2-yl)[1,1′-biphenyl]-2-yl}oxy)cyclopentyl]-5-azaspiro[3.4]octane-7-carboxamide] were 2.9 nM, 14.3 nM and 0.33 nM.
Taken in the same sequence, the figures for `CCc1ccccc1-c1cc(CC(=O)NS(=O)(=O)C2(C)CC2)ccc1O[C@@H]1CC[C@@H](NC(=O)[C@@]2(F)CNC3(CCC3)C2)C1` [Example C51, (7S)-N-[(1R,3R)-3-({2′-ethyl-5-[2-(1-methylcyclopropane-1-sulfonamido)-2-oxoethyl][1,1′-biphenyl]-2-yl}oxy)cyclopentyl]-7-fluoro-5-azaspiro[3.4]octane-7-carboxamide] were 3 nM, 4 nM and 0.4 nM.
Taken in the same sequence, the figures for `CC(C)c1ccccc1-c1cc(CC(=O)NS(=O)(=O)C2(C)CC2)ccc1O[C@@H]1CC[C@@H](NC(=O)[C@@]2(F)CNC3(CCC3)C2)C1` [Example C54, (7S)-7-fluoro-N-[(1R,3R)-3-({5-[2-(1-methylcyclopropane-1-sulfonamido)-2-oxoethyl]-2′-(propan-2-yl)[1,1′-biphenyl]-2-yl}oxy)cyclopentyl]-5-azaspiro[3.4]octane-7-carboxamide] were 0.9 nM, 1.4 nM and 0.04 nM.
As to `CC(C)c1ccccc1-c1cc(CC(=O)NS(=O)(=O)C(C)C)ccc1O[C@@H]1CC[C@@H](NC(=O)[C@@]2(F)CNC3(CCC3)C2)C1` [Example C55, (7S)-7-fluoro-N-[(1R,3R)-3-({5-[2-oxo-2-(propane-2-sulfonamido)ethyl]-2′-(propan-2-yl)[1,1′-biphenyl]-2-yl}oxy)cyclopentyl]-5-azaspiro[3.4]octane-7-carboxamide], the IC50 stood at 0.8 nM in assay [1] and 2.5 nM in assay [2]. In addition, the inhibition constant Ki in assay [3] (setting [4]) stood at 0.11 nM.
Taken in the same sequence, the figures for `CCc1c(F)cccc1-c1cc(CC(=O)NS(=O)(=O)C(C)C)ccc1O[C@@H]1CC[C@@H](NC(=O)[C@@]2(F)CNC3(CCC3)C2)C1` [Example C58, (7S)-N-[(1R,3R)-3-({2′-ethyl-3′-fluoro-5-[2-oxo-2-(propane-2-sulfonamido)ethyl][1,1′-biphenyl]-2-yl}oxy)cyclopentyl]-7-fluoro-5-azaspiro[3.4]octane-7-carboxamide] were 3.4 nM, 8.1 nM and 0.11 nM.
Taken in the same sequence, the figures for `CC(C)S(=O)(=O)NC(=O)C(C)(C)c1cnc(O[C@@H]2CC[C@@H](NC(=O)[C@@]3(F)CNC4(CCC4)C3)C2)c(-c2cccc(F)c2C2CCC2)c1` [Example C65, (7S)-N-[(1R,3R)-3-({3-(2-cyclobutyl-3-fluorophenyl)-5-[2-methyl-1-oxo-1-(propane-2-sulfonamido)propan-2-yl]pyridin-2-yl}oxy)cyclopentyl]-7-fluoro-5-azaspiro[3.4]octane-7-carboxamide] were 3.8 nM, 31.8 nM and 0.16 nM.
Turning to `CN1CC(C)(C)C[C@H]1C(=O)N[C@@H]1CC[C@@H](Oc2ccc(C(C)(C)C(=O)O)cc2-c2cccc(F)c2C2CCC2)C1` [Example D1, 2-[2′-cyclobutyl-3′-fluoro-6-({(1R,3R)-3-[(1,4,4-trimethyl-L-prolyl)amino]cyclopentyl}oxy)[1,1′-biphenyl]-3-yl]-2-methylpropanoic acid], the figures for the IC50 in assay [1] and in assay [2] were 52.8 nM and 419 nM, respectively. In addition, in assay [3] (setting [4]), the Ki is 4.05 nM.
For `CC(C)c1ccccc1-c1cc(CC(=O)O)ccc1O[C@@H]1CC[C@@H](NC(=O)[C@@H]2CC(C)(C)CN2C)C1` [Example D11, [2′-(propan-2-yl)-6-({(1R,3R)-3-[(1,4,4-trimethyl-L-prolyl)amino]cyclopentyl}oxy)[1,1′-biphenyl]-3-yl]acetic acid], in that order: 98.5 nM, 497 nM and 91.9 nM.
Turning to `CN1CC(C)(C)C[C@H]1C(=O)N[C@@H]1CC[C@@H](Oc2ccc(CC(=O)NS(C)(=O)=O)cc2-c2cccc(F)c2C2CCC2)C1` [Example E2, N-{(1R,3R)-3-[(2′-cyclobutyl-3′-fluoro-5-{2-[(methanesulfonyl)amino]-2-oxoethyl}[1,1′-biphenyl]-2-yl)oxy]cyclopentyl}-1,4,4-trimethyl-L-prolinamide], the figures for the IC50 in assay [1] and in assay [2] were 10.8 nM and 61.4 nM, respectively. The compound also displayed a Ki in assay [3] (setting [5]) of 0.66 nM.
As to `[2H]C([2H])([2H])N1CC(C)(C)C[C@H]1C(=O)N[C@@H]1CC[C@@H](Oc2ccc(C(C)(C)C(=O)NS(C)(=O)=O)cc2-c2cccc(F)c2C2CCC2)C1` [Example E5], the results for the IC50 in assay [1] and in assay [2] were 4.83 nM and 11.9 nM, respectively. Besides, the Ki in assay [3] (setting [4]) amounted to 0.31 nM.
Taken in the same sequence, the figures for `CN1CC(C)(C)C[C@H]1C(=O)N[C@@H]1CC[C@@H](Oc2ccc(C(C)(C)C(=O)NS(C)(=O)=O)cc2-c2ccccc2CC(F)(F)F)C1` [Example E6, N-[(1R,3R)-3-{[5-{1-[(methanesulfonyl)amino]-2-methyl-1-oxopropan-2-yl}-2′-(2,2,2-trifluoroethyl)[1,1′-biphenyl]-2-yl]oxy}cyclopentyl]-1,4,4-trimethyl-L-prolinamide] were 99 nM, 203 nM and 53 nM.
For `CN1CC(C)(C)C[C@H]1C(=O)N[C@@H]1CC[C@@H](Oc2ccc(C(C)(C)C(=O)NS(C)(=O)=O)cc2-c2cccc(F)c2C2CC2)C1` [Example E7, N-{(1R,3R)-3-[(2′-cyclopropyl-3′-fluoro-5-{1-[(methanesulfonyl)amino]-2-methyl-1-oxopropan-2-yl}[1,1′-biphenyl]-2-yl)oxy]cyclopentyl}-1,4,4-trimethyl-L-prolinamide], in that order: 34.2 nM, 202 nM and 26.6 nM.
For `CCc1c(F)cccc1-c1cc(C(C)(C)C(=O)NS(C)(=O)=O)ccc1O[C@@H]1CC[C@@H](NC(=O)[C@@H]2CC(C)(C)CN2C)C1` [Example E10, N-{(1R,3R)-3-[(2′-ethyl-3′-fluoro-5-{1-[(methanesulfonyl)amino]-2-methyl-1-oxopropan-2-yl}[1,1′-biphenyl]-2-yl)oxy]cyclopentyl}-1,4,4-trimethyl-L-prolinamide], in that order: 21.3 nM, 126 nM and 26.4 nM.
In the case of `CN1CC(C)(C)C[C@H]1C(=O)N[C@@H]1CC[C@@H](Oc2ccc(C(C)(C)C(=O)NS(C)(=O)=O)cc2-c2ccc(F)c(F)c2C2CCC2)C1` [Example E11, N-{(1R,3R)-3-[(2′-cyclobutyl-3′,4′-difluoro-5-{1-[(methanesulfonyl)amino]-2-methyl-1-oxopropan-2-yl}[1,1′-biphenyl]-2-yl)oxy]cyclopentyl}-1,4,4-trimethyl-L-prolinamide], the results for the IC50 in assay [1] and in assay [2] were 24.2 nM and 73.4 nM, respectively. Moreover, the Ki in assay [3] (setting [4]) amounted to 1.7 nM.
For the compound `CN1CC(C)(C)C[C@H]1C(=O)N[C@H]1C[C@H](COc2ccc(CC(=O)O)cc2-c2cccc(F)c2C2CCC2)C1` [Example F1, [2′-cyclobutyl-3′-fluoro-6-({(1S,3r)-3-[(1,4,4-trimethyl-L-prolyl)amino]cyclobutyl}methoxy)[1,1′-biphenyl]-3-yl]acetic acid], the IC50 in assay [1] turned out to be 41.5 nM; in assay [2], 125 nM. In assay [3] (setting [4]), the Ki is 12.9 nM.
